Results: US20130143929A1, “FUNGICIDAL IMIDAZOLES” (EI DU PONT DE NEMOURS AND COMPANY, priority 2010, published 2013)
Marks after values point to notes of the source that are not given here.

Key:
Assay type in all cases: in vivo
[1] = system: Puccinia recondite f. sp. tritici (the causal agent of wheat leaf rust); experiment: Test A: wheat leaf rust, preventive spray on wheat seedlings, visual disease rating; details: wheat leaf rust, preventive spray on wheat seedlings
In short: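 This was a preventive test: Puccinia recondite f. sp. tritici inoculum was applied one day after compound spray to run-off. Test suspensions were made in 50/50 acetone/water with 250 ppm surfactant, at 200 ppm (800 g/ha equivalent) or 40 ppm. Visual ratings of % disease control relative to controls were made after 24 h of saturated humidity and 7 growth-chamber days, all at 20° C.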

[2] = system: Septoria tritici (the causal agent of wheat leaf blotch); experiment: Test B: wheat leaf blotch, preventive spray on wheat seedlings, visual disease rating; details: wheat leaf blotch, preventive spray on wheat seedlings
In short: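 Preventive test: Septoria tritici spores applied one day after run-off spraying of seedlings (200 ppm equals 800 g/ha; some tests 40 ppm). After 48 h at 24 °C saturated atmosphere and 19 days at 20 °C, disease scored visually as % control relative to untreated plants.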

[3] = system: Botrytis cinerea (the causal agent of tomato Botrytis); experiment: Test C: tomato Botrytis, preventive spray on tomato seedlings, visual disease rating; details: tomato Botrytis, preventive spray on tomato seedlings
In short: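 Preventive test: B. cinerea spore inoculation one day after tomato seedlings were sprayed to run-off with compound suspended in 50/50 acetone–water plus 250 ppm surfactant. Plants held 48 h at 20° C in saturated air, then 3 days at 24° C; visual ratings scored 100 (full control) to 0 versus controls; some entries used 40 ppm.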

[4] = system: Blumeria graminis f. sp. tritici (also known as Erysiphe graminis f. sp. tritici, the causal agent of wheat powdery mildew); experiment: Test D: wheat powdery mildew, preventive spray on wheat seedlings, visual disease rating; details: wheat powdery mildew, preventive spray on wheat seedlings
In short: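 Preventive test: seedlings sprayed to run-off and inoculated with powdery mildew spores one day later. Suspensions were made in 50/50 acetone/water with 250 ppm Trem 014 surfactant (200 ppm equals 800 g/ha). Visual ratings after 8 days at 20 °C give percent disease control versus controls.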

[5] = no asterisk (standard test suspension concentration, not 40 ppm)
[6] = asterisk: 40 ppm test suspension

| SMILES | Test A rating (100 = 100% disease control, 0 = no disease control relative to the controls) [1, 5] [%] | Test B rating (100 = 100% disease control, 0 = no disease control relative to the controls) [2, 5] [%] | Test C rating (100 = 100% disease control, 0 = no disease control relative to the controls) [3, 5] [%] | Test D rating (100 = 100% disease control, 0 = no disease control relative to the controls) [4, 5] [%] | Test A rating (100 = 100% disease control, 0 = no disease control relative to the controls) [1, 6] | Test B rating (100 = 100% disease control, 0 = no disease control relative to the controls) [2, 6] | Test C rating (100 = 100% disease control, 0 = no disease control relative to the controls) [3, 6] | Test D rating (100 = 100% disease control, 0 = no disease control relative to the controls) [4, 6] |
| --- | --- | --- | --- | --- | --- | --- | --- | --- |
| Cc1nc(Cl)n(-c2ccc(F)cc2F)c1C(O)c1ccc(F)cc1F (stereo not shown) [compound 162] | 100 | 100 | 100 | 98 | – | – | – | – |
| Cc1nc(Cl)n(-c2ccc(F)cc2F)c1C(O)c1ccc(Cl)cc1 (stereo not shown) [compound 163] | 98 | 100 | 100 | 13 | – | – | – | – |
| Cc1cc(C#N)ccc1C(O)c1c(Cl)nc(C)n1-c1c(F)cccc1F (stereo not shown) [compound 164] | – | – | – | – | 93* % | 100* % | 0* % | 0* % |
| Cc1cc(C#N)ccc1C(O)c1c(Br)nc(C)n1-c1c(F)cccc1F (stereo not shown) [compound 165] | – | – | – | – | 80* % | 100* % | 8* % | 13* % |
| Cc1nc(Cl)c(C(O)c2ccc(F)cc2Cl)n1-c1c(F)cc(F)cc1F (stereo not shown) [compound 166] | – | – | – | – | 100* % | 100* % | 100* % | 43* % |
| Cc1nc(C)n(-c2c(F)cc(F)cc2F)c1C(O)c1ccc(F)cc1Cl (stereo not shown) [compound 169] | – | – | – | – | 100* % | 100* % | 40* % | 0* % |
| Cc1ncc(C(O)c2c(F)cc(F)cc2F)n1-c1ccc(F)cc1Cl (stereo not shown) [compound 170] | 99 | 73 | 63 | 0 | – | – | – | – |
| Cc1ncc(C(O)c2ccc(F)cc2Cl)n1-c1ccc(F)cc1Cl (stereo not shown) [compound 171] | 100 | 100 | 95 | 0 | – | – | – | – |
| Cc1nc(Br)c(C(O)c2ccc(Cl)cc2)n1-c1ccc(F)cc1Br (stereo not shown) [compound 172] | 100 | 100 | 100 | 90 | – | – | – | – |
| Cc1cc(F)ccc1C(O)c1c(Br)nc(C)n1-c1ccc(F)cc1Br (stereo not shown) [compound 173] | 99 | 100 | 16 | 48 | – | – | – | – |
| Cc1ncc(C(O)c2c(F)cc(F)cc2F)n1-c1ccc(F)cc1Br (stereo not shown) [compound 174] | 88 | 35 | 0 | 0 | – | – | – | – |
| Cc1ncc(C(O)c2c(F)cc(F)cc2F)n1-c1ccc(F)cc1F (stereo not shown) [compound 175] | 97 | 3 | 9 | 0 | – | – | – | – |
| Cc1nc(Br)c(C(O)c2c(F)cc(F)cc2F)n1-c1ccc(F)cc1Br (stereo not shown) [compound 176] | 100 | 100 | 100 | 96 | – | – | – | – |
| Cc1nc(Br)c(C(O)c2c(F)cc(F)cc2F)n1-c1ccc(F)cc1F (stereo not shown) [compound 177] | 100 | 100 | 99 | 0 | – | – | – | – |
| Cc1nc(Br)c(C(O)c2ccc(F)cc2F)n1-c1c(F)cccc1F (stereo not shown) [compound 178] | – | – | – | – | 100* % | 100* % | 96* % | 64* % |
| Cc1nc(Br)c(C(O)c2ccc(Cl)cc2F)n1-c1c(F)cccc1F (stereo not shown) [compound 179] | – | – | – | – | 68* % | 100* % | 78* % | 43* % |
| Cc1nc(Cl)c(C(O)c2ccc(C#N)cc2F)n1-c1c(F)cccc1F (stereo not shown) [compound 180] | – | – | – | – | 0* % | 48* % | 0* % | 0* % |
| Cc1ncc(C(O)c2cccnc2)n1-c1c(F)cc(F)cc1F (stereo not shown) [compound 181] | 0 | 1 | 0 | 0 | – | – | – | – |
| Cc1nc(Br)c(C(O)c2cccnc2)n1-c1c(F)cc(F)cc1F (stereo not shown) [compound 182] | 68 | 100 | 0 | 21 | – | – | – | – |
| COc1cc(F)c(-n2c(C)nc(Cl)c2C(O)c2ccc(F)cc2C)c(F)c1 (stereo not shown) [compound 183] | – | – | – | – | 86* % | 100* % | 8* % | 0* % |
| Cc1cc(F)ccc1C(O)c1c(Br)nc(C)n1-c1c(F)cccc1Cl (stereo not shown) [compound 186] | – | – | – | – | 99* % | 100* % | 99* % | 97* % |
| Cc1nc(Br)c(C(O)c2ccc(F)cc2Cl)n1-c1c(F)cccc1Cl (stereo not shown) [compound 188] | – | – | – | – | 100* % | 100* % | 99* % | 99* % |
